Results as given in patent US20240299557A1, “COMPOUND FOR DEGRADING DEOXYRIBONUCLEIC ACID (DNA) POLYMERASE, AND USE THEREOF” (TAIBIDI PHARMACEUTICAL TECHNOLOGY (SHIJIAZHUANG) CO., LTD., priority 2021, published 2024).
Where a SMILES comes first, the peptide text is derived from it. The star is where a group is joined. Cbz = O=C(OCc1ccccc1)*

Columns and labels:
HBV [1] = experiment: Inhibition of HBV virus replication in HepAD38 cells (HBV DNA level in supernatant); format: cell-based, hepatitis B virus; details: for inhibition at 0.01 µM / inhibition at 0.1 µM / inhibition at 1 µM / inhibition at 10 µM: Hepatitis B virus, HepAD38 cell line, read-out: Antiviral activity of the compound at different concentrations; for inhibition at 1 µM: 1000 nM; for inhibition at 10 µM: 10000 nM; for inhibition of virus replication: all tested dose levels 10 nM, P≤0.001; for inhibitory effect on virus replication: after 7 days, TPD00203 each dose group (3.75 nM, 100 nM, 5 μM, 100 μM), ETV 3.75 nM
Procedure: In vitro cell model 2: Stable toxigenic HepAD38 cells.
(§1) Positive drug control: entecavir (ETV).
(§2) Experimental procedure: HepG2.2.15 cells and stable toxigenic HepAD38 cells were divided into six experimental groups. The number of cells in each well was 7×10^4, and the amount of medium in each well was 500 μl. The first group was a blank control, the second group was a positive control, and 3.75 nM ETV was added; the third to sixth groups were added with 3.75 nM, 100 nM, 5 μM and 100 μM compound (I, TPD00203). The supernatant was collected on the 3rd day after administration and the HBV DNA level in the supernatant was detected. On the seventh day, the supernatant was collected again and the cells were pelleted, and the level of HBV DNA in the supernatant was detected.
After the preliminary evaluation of the virus-inhibiting effect of TPD00203, the inhibitory effects of the same dose of TPD00203 and ETV were determined in HepAD38 cell line. ETV and TPD00203 were 4 dose groups of 10 nM, 100 nM, 1 μM, and 10 μM.
The inhibitory activity of compounds (I-X) on the virus in HepAD38 cell line was determined by the same method as in Example 6, and the results were shown in the following table.

[2] = target: T1, HBV P protein (DNA polymerase) (Hepatitis B virus genotype D subtype ayw, UniProt P03156); experiment: Degradation of HBV P protein (DNA polymerase) in Huh7-HBP cell line (Nano-Glo HiBiT/LgBiT luminescence); format: cell-based; details: read-out: Degradation activity of DNA polymerase at different concentrations of compounds; for inhibition at 0.1 µM: 100 nM; for inhibition at 0.3 µM: 300 nM; for inhibition at 1 µM: 1000 nM; for inhibition at 3 µM: 3000 nM; for inhibition at 10 µM: 10000 nM
T1 construct: expressed in transfected cells; host or cells: Huh7-LgBiT cells transduced with pLVX-HBP-Puro lentivirus (Huh7-HBP)
T1 sequence (P03156 whole entry): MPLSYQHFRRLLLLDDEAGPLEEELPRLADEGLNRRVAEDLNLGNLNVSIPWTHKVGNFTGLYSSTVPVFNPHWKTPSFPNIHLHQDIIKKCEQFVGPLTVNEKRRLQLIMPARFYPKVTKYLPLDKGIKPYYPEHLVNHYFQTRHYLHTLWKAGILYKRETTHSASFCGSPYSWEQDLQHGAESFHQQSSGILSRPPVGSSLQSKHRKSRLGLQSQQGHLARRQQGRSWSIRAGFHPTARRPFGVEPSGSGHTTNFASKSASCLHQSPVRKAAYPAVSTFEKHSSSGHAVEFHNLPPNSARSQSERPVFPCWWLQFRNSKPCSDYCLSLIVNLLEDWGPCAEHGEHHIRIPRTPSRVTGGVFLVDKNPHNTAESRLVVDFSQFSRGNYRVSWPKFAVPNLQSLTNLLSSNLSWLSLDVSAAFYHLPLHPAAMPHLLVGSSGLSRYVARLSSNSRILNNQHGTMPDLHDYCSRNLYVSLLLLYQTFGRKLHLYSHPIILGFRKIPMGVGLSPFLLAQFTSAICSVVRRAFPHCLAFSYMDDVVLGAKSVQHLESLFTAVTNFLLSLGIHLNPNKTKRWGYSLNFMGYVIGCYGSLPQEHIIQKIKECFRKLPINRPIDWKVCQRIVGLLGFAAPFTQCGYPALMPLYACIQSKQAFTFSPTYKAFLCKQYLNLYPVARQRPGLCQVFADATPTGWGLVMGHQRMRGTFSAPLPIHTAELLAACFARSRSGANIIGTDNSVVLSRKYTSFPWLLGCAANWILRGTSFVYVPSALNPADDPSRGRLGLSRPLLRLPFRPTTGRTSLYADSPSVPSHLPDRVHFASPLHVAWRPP
Procedure: The transfected huh-7-HBP cell line was digested and suspended, 100 μl of cell suspension was added to each well of a 96-well plate at a concentration of 2×10^5/ml, and incubated overnight. 10 μl of drug was added to each well according to the pre-set dose, and each dose of each drug should be at least two replicate wells. After shaking gently, the cell suspension was put back into the incubator, and incubated for 1-24 h according to the specific situation. Nano-Glo@ LCS Dilution Buffer and Nano-Glo@ Live Cell Substrate two reagents in the Nano-Glo@Live Cell Assay System kit were mixed at a ratio of 20:1, and added to the cell plate to be tested at a ratio of 25 ul per 100 ul system. After shaking for 30 seconds, full wavelength luminosity was measured using BMG Labtech FLUOstar Omega ELIASA. The higher the luminescence value, the higher the HBP content of the target protein.
According to method 1, the degradation effect of target compounds I-X on HBV P protein at 5 different concentrations was determined.

HBV P protein = target: T2, HBV P protein (Hepatitis B virus genotype D subtype ayw, UniProt P03156); experiment: Degradation of flag-tagged HBV P protein in transfected Huh7 cells (Western Blot); format: cell-based
T2 construct: flag; expressed in transfected cells; host or cells: Huh7
T2 sequence (P03156 whole entry): as above
Procedure: In vitro cell model: Huh7.
Proteasome inhibitor: MG132
The Huh7 cells cultured in the medium containing 10 μM TPD00203 drug were used to transfect the flag-tagged P protein overexpression plasmid, and the medium containing 10 μM TPD00203 drug was changed 6 hours after transfection, and MG132 (final concentration 10 μM) was added 24 hours after transfection to inhibit the degradation of P protein, and cells were harvested after MG132 treatment for 12 hours. MG132 is a reversible proteasome inhibitor. After MG132 was removed, the cells were cultured in a medium containing 10 μM TPD00203 for 12 hours, and the cells were harvested. The expression of P protein was detected by Western Blot experiment. DMSO was used as a control.

HBV [3] = experiment: Inhibition of HBV virus replication in HepG2.2.15 cells (HBV DNA level in supernatant); format: cell-based, hepatitis B virus; details: after 7 days of administration, P≤0.001 vs blank group
Procedure: In vitro cell model 1: HepG2 cells transfected with hepatitis B virus (HBV), namely HepG2 2.2.15 cells.
as §1, §2

[4] = HepAD38 cells, 7 days, 100 nM, 1 μM, 10 μM

| Compound | inhibition at 0.01 µM (HBV [1]; 10 nM) | inhibition at 0.1 µM (HBV [1]; 100 nM) | inhibition at 1 µM (HBV [1]) | inhibition at 10 µM (HBV [1]) | inhibition at 0.1 µM [2] | inhibition at 0.3 µM [2] | inhibition at 1 µM [2] | inhibition at 3 µM [2] | inhibition at 10 µM [2] | effect of proteasome inhibitor on drug-induced P protein degradation (HBV P protein; Huh7 cells, MG132 final concentration 10 μM added 24 hours after transfection, with 10 μM TPD00203) | inhibitory effect on virus replication (HBV [3]; 3.75 nM) | inhibition of virus replication (HBV [1]; [4]) | inhibitory effect on virus replication (HBV [1]; HepAD38 cells) | inhibitory effect on virus replication (HBV [3]; 5 μM) | inhibitory effect on virus replication (HBV [3]; 100 μM) | virus-inhibiting effect compared with ETV at the same dose (HBV [1]; HepAD38 cells, 7 days, 10 nM, 100 nM, 1 μM, 10 μM) | P protein degradation (Western Blot) (HBV P protein; Huh7 cells transfected with flag-Polymerase plasmid, 10 μM TPD00203, 36 hours after transfection) |
| --- | --- | --- | --- | --- | --- | --- | --- | --- | --- | --- | --- | --- | --- | --- | --- | --- | --- |
| C=C1[C@H](CNC(=O)CN2CCC(CCCC(=O)N[C@H](C(=O)N3C[C@H](O)C[C@H]3C(=O)NCc3ccc(-c4scnc4C)cc3)C(C)(C)C)CC2)[C@H](O)C[C@@H]1n1cnc2c(=O)[nH]c(N)nc21 [VIII] | 30 to 60% | 30 to 60% | 30 to 60% | > 60% | < 30% | < 30% | 30 to 70% | 30 to 70% | > 70% |  |  |  |  |  |  |  |  |
| C=C1[C@H](CO)[C@H](O)C[C@@H]1n1cnc2c(OCCN3CCC(CCCC(=O)N[C@H](C(=O)N4C[C@H](O)C[C@H]4C(=O)NCc4ccc(-c5scnc5C)cc4)C(C)(C)C)CC3)nc(N)nc21 [III] | > 60% | > 60% | > 60% | > 60% | < 30% | < 30% | 30 to 70% | 30 to 70% | > 70% |  |  |  |  |  |  |  |  |
| C=C1[C@H](CO)[C@H](O)C[C@@H]1n1cnc2c(OCCN3CCN(CCCC(=O)N[C@H](C(=O)N4C[C@H](O)C[C@H]4C(=O)NCc4ccc(-c5scnc5C)cc4)C(C)(C)C)CC3)nc(N)nc21 [II] | 10 to 30% | 10 to 30% | 30 to 60% | > 60% | < 30% | < 30% | < 30% | 30 to 70% | 30 to 70% |  |  |  |  |  |  |  |  |
| CC(C)C[C@@H](C=O)NC(=O)[C@H](CC(C)C)NC(=O)[C@H](CC(C)C)NC(=O)OCc1ccccc1 [MG132, reference compound] (Cbz-Leu-Leu-Leu-aldehyde) |  |  |  |  |  |  |  |  |  | inhibited drug degradation |  |  |  |  |  |  |  |
| C=C1[C@H](CO)[C@@H](O)C[C@@H]1n1cnc2c(=O)[nH]c(N)nc21 [entecavir, reference compound] |  |  |  |  |  |  |  |  |  |  | significant inhibitory effect on virus replication | significantly inhibit virus replication | significant inhibitory effect on virus replication |  |  |  |  |
| C=C1[C@H](CO)[C@H](O)C[C@@H]1n1cnc2c(OCCOCCOCCCC(=O)N[C@H](C(=O)N3C[C@H](O)C[C@H]3C(=O)NCc3ccc(-c4scnc4C)cc3)C(C)(C)C)nc(N)nc21 [Compound V] | 10 to 30% | 30 to 60% | 30 to 60% | 30 to 60% | < 30% | 30 to 70% | 30 to 70% | 30 to 70% | 30 to 70% |  |  |  |  |  |  |  |  |
| C=C1[C@H](CNC(=O)CN2CCC(OCCC(=O)N[C@H](C(=O)N3C[C@H](O)C[C@H]3C(=O)NCc3ccc(-c4scnc4C)cc3)C(C)(C)C)CC2)[C@H](O)C[C@@H]1n1cnc2c(=O)[nH]c(N)nc21 [IX] | 30 to 60% | 30 to 60% | > 60% | > 60% |  |  |  |  |  |  |  |  |  |  |  |  |  |
| C=C1[C@H](CO)[C@H](O)C[C@@H]1n1cnc2c(OCCCCCCCCCC(=O)N[C@H](C(=O)N3C[C@H](O)C[C@H]3C(=O)NCc3ccc(-c4scnc4C)cc3)C(C)(C)C)nc(N)nc21 [Compound I] | > 60% | > 60% | > 60% | > 60% | < 30% | 30 to 70% | 30 to 70% | > 70% | > 70% |  | significant inhibition of viral replication | significantly inhibit virus replication | significant inhibitory effect on virus replication | significant inhibition of viral replication | significant inhibition of viral replication | better virus-inhibiting effect than ETV | promote P protein degradation |
| C=C1[C@H](CNC(=O)CCCCCCCCC(=O)N[C@H](C(=O)N2C[C@H](O)C[C@H]2C(=O)NCc2ccc(-c3scnc3C)cc2)C(C)(C)C)[C@H](O)C[C@@H]1n1cnc2c(=O)[nH]c(N)nc21 [Compound VI, N1-(((1R,3S)-3-(2-amino-6-oxo-1,6-dihydro-9H-purin-9-yl)-5-hydroxy-2-methylenecyclopentyl)methyl)-N10-((S)-1-((2S,4R)-4-hydroxy-2-((4-(4-methylthiazol-5-yl)benzyl)carbamoyl)pyrrolidin-1-yl)-3,3-dimethyl-1-oxobutan-2-yl) decanoic acid diamide] | 10 to 30% | 30 to 60% | > 60% | > 60% | < 30% | 30 to 70% | 30 to 70% | > 70% | > 70% |  |  |  |  |  |  |  |  |
| C=C1[C@H](CNC(=O)CN2CCN(CCCC(=O)N[C@H](C(=O)N3C[C@H](O)C[C@H]3C(=O)NCc3ccc(-c4scnc4C)cc3)C(C)(C)C)CC2)[C@H](O)C[C@@H]1n1cnc2c(=O)[nH]c(N)nc21 [Compound VII] | 10 to 30% | 10 to 30% | 30 to 60% | 30 to 60% | < 30% | < 30% | < 30% | 30 to 70% | 30 to 70% |  |  |  |  |  |  |  |  |
